The record followed here is PubChem BioAssay AID1549 (Sanford-Burnham Center for Chemical Genomics, 2009).

One may read the Kd as the equilibrium constant for the complex coming apart.

The source made the active and inactive calls. The rule behind the calls is not given here. Where only a bound is given, the exact number is not on record here.

For this assay, the target named is Influenza A virus M2 proton channel (A/TW/4845/1999 H1N1). Put plainly: NMR binding screen, influenza A virus M2 proton channel, Kd (AID 1549). The settings on record: M2 protein.
As for `COc1ccc(C)cc1S(=O)(=O)NC1CCCC1`, the Kd is > 4 mM (inactive).
For the compound `Nc1ccc(O)cn1`, the Kd was > 4 mM (inactive).
The same measure for `NC(=O)Cn1cnc2c(cnn2-c2ccccc2)c1=O`: > 4 mM (inactive); for `O=c1[nH]c2sc3c(c2c2ncnn12)CCCC3`: > 4 mM (inactive); for `Nc1ncnc(NCCCO)c1[N+](=O)[O-]`: > 4 mM (inactive).
Turning to `Cn1cnc2c(cnn2-c2ccccc2)c1=O`, the Kd is > 4 mM (inactive).
The same measure for `O=C(CSc1ccnc(=O)[nH]1)NCc1ccco1`: > 4 mM (inactive).
In the case of `COCc1cc(=O)oc2cc(N)ccc12` it was > 4 mM (inactive); in that of `CC(=O)Nc1ccc(S(=O)(=O)NC(N)=O)cc1`, > 4 mM (inactive); in that of `CC(=O)NC(=S)Nc1nc2ccccc2n1C(C)=O`, > 4 mM (inactive).
Turning to `COc1cc2c(cc1OC)C1Cc3ccc(OC)c(OC)c3CN1CC2` (stereo not drawn), the Kd is > 4 mM (inactive).
In the case of `CCC(C)C(=O)O[C@@H]1C[C@@]2(C)[C@H](c3ccoc3)OC(=O)CC23OC2(C)O[C@]14[C@]1(C)[C@@H](CC(=O)OC)C5(C)CC1(O)[C@](O)(C5OC(=O)C1(C)OC1C)[C@@H](OC(C)=O)[C@]34O2` (stereo partly drawn) it was > 4 mM (inactive); in that of `N/C(=N/O)C1COc2ccccc2O1` (stereo not drawn), > 4 mM (inactive); in that of `CN1CCC(NC(=O)c2cccnc2)CC1`, > 4 mM (inactive).
Turning to `Cc1cccc(C)c1NC(=O)CN1CCOCC1`, the Kd is > 4 mM (inactive).
For the compound `CC(=O)O[C@@H]1CC2C(C)(C)[C@H](O)C=C[C@]2(C)C2CC[C@@]3(C)[C@H](c4ccoc4)OC(=O)C4OC43[C@@]21C` (stereo partly drawn), the Kd is > 4 mM (inactive).
In the case of `Nn1cnn2c(SCc3ccccc3)nnc12`, the Kd is > 4 mM (inactive).
In the case of `NC(=O)c1ccc(SCC(=O)O)c([N+](=O)[O-])c1`, the Kd was > 4 mM (inactive).
`NS(=O)(=O)c1ccccc1Cl`: the Kd was > 4 mM (inactive).
In the case of `CS/C(N)=C\C(C)=O` it was > 4 mM (inactive).
Regarding `Cc1nn(C)c(C)c1C(=O)O`, the Kd was > 4 mM (inactive).
In the case of `CC(C)(C(N)=O)/[N+]([O-])=C\c1ccccc1` it was > 4 mM (inactive).
In the case of `Cc1cc(C(F)(F)F)n2nc(C(=O)O)c(Cl)c2n1` it was > 4 mM (inactive); in that of `Cc1cccc(NC(=O)c2ccc(=O)[nH]n2)c1`, > 4 mM (inactive).
Turning to `COc1cccc(-c2nc3ccc(O)cc3c(=O)o2)c1`, the Kd is > 4 mM (inactive).
Take `CC(=O)Nc1ccc(Nc2nnc(C)c(=O)[nH]2)cc1`: the Kd was > 4 mM (inactive).
For `NS(=O)(=O)c1ccc(F)cc1`, the Kd was > 4 mM (inactive).
For the compound `CC1(C)NC(=O)N(CN2CCOCC2)C1=O`, the Kd is > 4 mM (inactive).
On to `O=C(O)CNC(=O)c1ccccc1Cl`, for which the Kd is > 4 mM (inactive).
The same measure for `NCc1nc2ccccc2s1`: > 4 mM (inactive); for `COc1nc(C)ccc1-c1noc(-c2ccco2)n1`: > 4 mM (inactive); for `COC(=O)C[C@H]1C(C)(C)C(=O)[C@@H]2CC3=C(CC[C@]4(C)C3=CC(=O)O[C@H]4c3ccoc3)C1(C)C2=O`: > 4 mM (inactive).
In the case of `Cc1nc(N)sc1C(=O)Nc1nccs1` it was > 4 mM (inactive).
The same measure for `CCCNC(CC(=O)Nc1cccnc1)C(=O)O` (stereo not drawn): > 4 mM (inactive); for `OCc1snnc1-c1ccccc1`: > 4 mM (inactive); for `O=C(Nc1ccccc1)Nc1ccccn1`: > 4 mM (inactive).
As for `CN1CCN(CC(O)c2ccccc2)CC1` (stereo not drawn), the Kd is > 4 mM (inactive).
The same measure for `O=C(c1cc(Cl)cc(Cl)c1)N1CCOCC1`: > 4 mM (inactive).
The same measure for `CCn1c(-c2c[nH]c3ccccc23)n[nH]c1=S`: > 4 mM (inactive); for `NC(=O)Cn1nc(-c2ccc(F)cc2)ccc1=O`: > 4 mM (inactive); for `O=S1(=O)CCC(NC(=S)N2CCOCC2)C1` (stereo not drawn): > 4 mM (inactive).
In the case of `COc1ccc2c(c1)OCc1c-2oc2cc(OC)ccc12`, the Kd was > 4 mM (inactive).
In the case of `CN1CCN(CC(=O)NC2CCCCC2)CC1` it was > 4 mM (inactive).
Take `CC(=O)Nc1ccc(NC(=O)c2ccnn2C)cc1`: the Kd is > 4 mM (inactive).
The same measure for `COC(=O)c1c(C)cc(OC(=O)c2c(C)cc(O)c(C=O)c2O)c(C)c1O`: > 4 mM (inactive); for `CN(C)c1ccc(CNn2cnnc2)cc1`: > 4 mM (inactive).
The same measure for `CN(C)C(=O)Oc1cccc(-c2nnco2)c1`: > 4 mM (inactive); for `Cc1nccc2c1[nH]c1ccccc12`: > 4 mM (inactive); for `CC(=O)N1CCN(S(=O)(=O)c2ccccc2)CC1`: > 4 mM (inactive).
The same measure for `N#Cc1cnn(-c2ccc(Cl)cc2)c1N`: > 4 mM (inactive).
`Cc1ccccc1NC(=O)c1ocnc1C`: the Kd was > 4 mM (inactive).
In the case of `CCOc1cc(C)c(Cl)cc1S(=O)(=O)N(C)C`, the Kd is > 4 mM (inactive).
In the case of `O=C1CCC(=O)N1c1ccc(F)cc1` it was > 4 mM (inactive); in that of `CC1(C)CC[C@]2(C)CC[C@]3(C)C(=CCC4[C@@]5(C)CC[C@H](O)C(C)(C)C5CC[C@]43C)C2C1` (stereo partly drawn), > 4 mM (inactive).
In the case of `Cc1nccn1CCC(=O)O` it was > 4 mM (inactive); in that of `CC(=O)O[C@@H]1CC2C(C)(CC[C@H](O)C2(C)C)C2CC[C@]3(C)C(=CC(=O)O[C@H]3c3ccoc3)C21C` (stereo partly drawn), > 4 mM (inactive); in that of `COc1c(C(=O)N2CCCC2)ccc2ccccc12`, > 4 mM (inactive).
Take `CCNS(=O)(=O)c1ccc(OC)c(C)c1`: the Kd was > 4 mM (inactive).
On to `O=C(Nc1nncs1)c1c(F)c(F)c(F)c(F)c1F`, for which the Kd was > 4 mM (inactive).
In the case of `O=C1NC(=O)C(=Cc2cccs2)C(=O)N1`, the Kd was > 4 mM (inactive).
Turning to `O=C(CCc1ccc(O)cc1)c1c(O)cc(O)cc1O`, the Kd was > 4 mM (inactive).
The same measure for `Nc1cccc(S(=O)(=O)N2CCCC2)c1`: > 4 mM (inactive).
`COc1ccc(Cl)c(S(=O)(=O)N2CCCC2)c1`: the Kd is > 4 mM (inactive).
The same measure for `COc1ccc(N=C2NC(=O)CS2)cc1`: > 4 mM (inactive); for `O=[n+]1cc(C2=CC=CCC2)n([O-])c2c1CCCCC2`: > 4 mM (inactive); for `COc1ccccc1-c1noc(-c2ccco2)n1`: > 4 mM (inactive).
In the case of `COC(=O)c1ccccc1NC(=O)c1cc[n+]([O-])cc1` it was > 4 mM (inactive).
Consider `COc1ccc(NC(=O)/C=N/O)cc1`, for which the Kd is > 4 mM (inactive).
For the compound `O=C1CCNc2ccccc2N1`, the Kd was > 4 mM (inactive).
In the case of `NC(=O)CC1Sc2ccccc2NC1=O` (stereo not drawn) it was > 4 mM (inactive); in that of `Nc1nnc(SCc2ccc3c(c2)OCO3)s1`, > 4 mM (inactive); in that of `COc1ccc2c(c1)OCC(Cc1ccc(OC)c(O)c1)C2=O` (stereo not drawn), > 4 mM (inactive).
On to `O=C(c1ccccc1)c1ccc(N2CCNCC2)cc1`, for which the Kd is > 4 mM (inactive).
The same measure for `COC1C=CC23c4cc5c(cc4CN(CC2O)[C@@H]3C1)OCO5` (stereo partly drawn): > 4 mM (inactive); for `CC(C)=CCc1c(O)cc(C)oc1=O`: > 4 mM (inactive); for `O=C1NC(=O)/C(=C\c2ccncc2)S1`: > 4 mM (inactive).
As for `S=c1nc(C2CC2)[nH]c2ccccc12`, the Kd was > 4 mM (inactive).
In the case of `O=C1CC(=O)N(c2ccccc2)c2ccccc21` it was > 4 mM (inactive).
As to `CN1CCN(C(=S)NC(=O)c2ccn(C)n2)CC1`, the Kd is > 4 mM (inactive).
In the case of `CC(=O)OC1CCC2(C)C3CC(=O)C4(C)C(CC5OC6(CCC(C)CO6)[C@@H](C)C54)C3CC[C@H]2C1` (stereo partly drawn), the Kd was > 4 mM (inactive).
The same measure for `Nc1ccc(-c2csnn2)cc1`: > 4 mM (inactive); for `Cc1n[nH]c(=S)[nH]c1=O`: > 4 mM (inactive).
In the case of `O=C1CS/C(=N/N=C2CCCC2)N1`, the Kd was > 4 mM (inactive).
In the case of `O=C(O)CCCN1CNC(=S)NC1` it was > 4 mM (inactive); in that of `CCSc1nnc(-c2ccccc2N)c(=O)[nH]1`, > 4 mM (inactive).
In the case of `Cc1ccnc(NS(=O)(=O)c2cccs2)c1` it was > 4 mM (inactive).
For the compound `Cc1cc(C)n(C/C=C/Cn2nc(C)cc2C)n1`, the Kd is > 4 mM (inactive).
The same measure for `O=C1C2=C(SCCS2)C(=O)N1CCCO`: > 4 mM (inactive); for `COc1ccc(-c2noc(-c3ccco3)n2)cc1OC`: > 4 mM (inactive); for `Cc1nnc(SCC(=O)NC2CCCC2)[nH]c1=O`: > 4 mM (inactive).
Consider `Cc1ccc2cccc(OC(=O)N3CCCC3)c2n1`, for which the Kd is > 4 mM (inactive).
For the compound `OC1CCC(C(F)(F)F)CC1` (stereo not drawn), the Kd was > 4 mM (inactive).
In the case of `NC(=O)c1cccc2c1OCCO2` it was > 4 mM (inactive); in that of `O=C1C2C3C=CC(C3)C2C(=O)N1c1ccccn1` (stereo not drawn), > 4 mM (inactive).
The same measure for `COC(=O)CSc1ncnc2c(C)csc12`: > 4 mM (inactive).
In the case of `CCN1CCn2c1nc(N1CCOCC1)nc2=O` it was > 4 mM (inactive).
Regarding `Cn1c(SCC(N)=O)nnc1-c1cccnc1`, the Kd was > 4 mM (inactive).
The same measure for `NCCc1nc2ccccc2[nH]1`: > 4 mM (inactive); for `Oc1ccc(-c2n[nH]c(=S)n2Cc2ccco2)cc1`: > 4 mM (inactive).
The same measure for `CC1(C)C2CC(=O)[C@]3(C)C(CC[C@@]4(C)[C@H](c5ccoc5)OC(=O)[C@H]5O[C@]543)[C@@]2(C)C(=O)C[C@H]1O` (stereo partly drawn): > 4 mM (inactive).
The same measure for `O=C(Nc1c[nH]c(=O)[nH]c1=O)c1cccs1`: > 4 mM (inactive); for `Cc1cc(C)n(C2CCS(=O)(=O)C2)n1` (stereo not drawn): > 4 mM (inactive); for `O=C(O)CCC1=C2c3ccccc3CCN2C(=O)CC1`: > 4 mM (inactive).
